ChEMBL document CHEMBL1144161, “ortho-dihydroxyisoflavone derivatives from aged Doenjang (Korean fermented soypaste) and its radical scavenging activity” (Bioorg Med Chem Lett, 2008)

What was measured:
[1] = target: T1, Xanthine dehydrogenase/oxidase (Homo sapiens, UniProt P47989); assay: Inhibition of xanthine oxidase assessed as decrease of superoxide generation
[2] = target: T1, Xanthine dehydrogenase/oxidase; assay: Inhibition of xanthine oxidase assessed as decrease of uric acid generation
[3] = tested on: Radical scavenging activity; assay: Antioxidant activity assessed as DPPH radical scavenging activity after 30 mins; type: functional

T1 sequence (P47989 whole entry): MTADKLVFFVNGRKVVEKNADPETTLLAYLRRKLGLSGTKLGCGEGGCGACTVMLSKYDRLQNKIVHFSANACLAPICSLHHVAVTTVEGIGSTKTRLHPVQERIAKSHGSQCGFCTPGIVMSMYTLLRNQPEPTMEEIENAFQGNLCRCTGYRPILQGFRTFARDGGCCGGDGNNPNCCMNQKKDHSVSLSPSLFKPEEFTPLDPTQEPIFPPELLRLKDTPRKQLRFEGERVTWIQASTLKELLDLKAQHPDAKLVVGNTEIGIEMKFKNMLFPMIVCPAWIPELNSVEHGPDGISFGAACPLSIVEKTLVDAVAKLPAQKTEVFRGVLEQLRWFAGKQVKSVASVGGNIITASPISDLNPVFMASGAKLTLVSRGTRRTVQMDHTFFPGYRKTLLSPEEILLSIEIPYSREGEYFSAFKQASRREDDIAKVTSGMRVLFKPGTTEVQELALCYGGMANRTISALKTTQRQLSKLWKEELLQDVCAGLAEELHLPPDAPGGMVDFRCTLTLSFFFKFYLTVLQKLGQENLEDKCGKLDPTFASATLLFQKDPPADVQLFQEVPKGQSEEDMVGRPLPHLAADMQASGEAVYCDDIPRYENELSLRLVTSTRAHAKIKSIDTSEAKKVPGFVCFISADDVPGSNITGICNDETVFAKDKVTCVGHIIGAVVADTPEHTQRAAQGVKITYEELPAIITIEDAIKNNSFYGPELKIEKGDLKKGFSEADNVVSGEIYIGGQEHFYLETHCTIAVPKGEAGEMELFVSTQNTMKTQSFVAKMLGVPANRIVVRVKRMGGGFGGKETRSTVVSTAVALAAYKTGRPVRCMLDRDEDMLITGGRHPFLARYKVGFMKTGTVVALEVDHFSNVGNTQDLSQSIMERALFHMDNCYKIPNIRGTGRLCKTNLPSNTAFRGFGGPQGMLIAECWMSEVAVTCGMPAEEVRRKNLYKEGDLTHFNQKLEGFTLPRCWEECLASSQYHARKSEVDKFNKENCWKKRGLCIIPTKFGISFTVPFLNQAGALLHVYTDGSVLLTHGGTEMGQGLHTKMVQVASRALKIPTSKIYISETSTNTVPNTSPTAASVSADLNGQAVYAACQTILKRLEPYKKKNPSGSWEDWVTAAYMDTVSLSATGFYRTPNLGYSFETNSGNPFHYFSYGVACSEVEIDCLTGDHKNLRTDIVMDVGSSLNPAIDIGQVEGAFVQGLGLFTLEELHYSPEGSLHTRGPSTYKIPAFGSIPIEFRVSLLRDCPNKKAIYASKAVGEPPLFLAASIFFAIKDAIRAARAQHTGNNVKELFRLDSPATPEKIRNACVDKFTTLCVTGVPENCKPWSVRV

| Compound | IC50 [1] | IC50 [2] | IC50 [3] |
| --- | --- | --- | --- |
| O=c1c(-c2ccc(O)c(O)c2)coc2cc(O)ccc12 | 16.8 µM | > 1000 µM | 28.7 µM |
| O=c1c(-c2ccc(O)cc2)coc2cc(O)c(O)cc12 | > 1000 µM | > 1000 µM | 32.6 µM |
| O=c1c(-c2ccc(O)cc2)coc2c(O)c(O)ccc12 | 6.6 µM | > 1000 µM | 21.5 µM |
| O=C1O[C@H]([C@@H](O)CO)C(O)=C1O [ASCORBIC ACID] | – | – | 52.3 µM |
| O=c1c(-c2ccc(O)cc2)coc2cc(O)ccc12 [DAIDZEIN] | 430 µM | > 1000 µM | – |

Next, values leading:

| IC50 [1] | IC50 [2] | IC50 [3] | Compound |
| --- | --- | --- | --- |
| 232 µM | > 1000 µM | – | O=c1c(-c2ccc(O)cc2)coc2cc(O)cc(O)c12 [GENISTEIN] |
| 683 µM | > 1000 µM | – | COc1cc2c(=O)c(-c3ccc(O)cc3)coc2cc1O [GLYCITEIN] |
| – | – | 48.9 µM | Cc1c(C)c2c(c(C)c1O)CCC(C)(C(=O)O)O2 (configuration not stated) [TROLOX] |
